Results taken from PMC5587797 (Nucleic Acids Research, 2017).

Tests used:
[1] = target: hTRMT10A (Homo sapiens, UniProt Q8TBZ6); experiment: biochemical
[2] = target: hTRMT10A (Homo sapiens, UniProt Q8TBZ6, D210N); experiment: biochemical
Sequence of hTRMT10A (Homo sapiens, UniProt Q8TBZ6, D210N) (Q8TBZ6 whole entry D210N): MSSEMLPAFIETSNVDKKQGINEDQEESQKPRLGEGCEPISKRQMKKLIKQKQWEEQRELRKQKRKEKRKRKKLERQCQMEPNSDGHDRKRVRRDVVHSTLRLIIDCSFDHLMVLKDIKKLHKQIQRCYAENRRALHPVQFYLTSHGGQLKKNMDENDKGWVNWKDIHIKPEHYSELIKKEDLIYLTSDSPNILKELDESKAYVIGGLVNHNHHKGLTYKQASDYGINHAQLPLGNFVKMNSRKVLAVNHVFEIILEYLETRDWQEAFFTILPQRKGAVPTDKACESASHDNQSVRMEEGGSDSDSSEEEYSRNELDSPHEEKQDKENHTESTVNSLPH

Sequence of hTRMT10A (Homo sapiens, UniProt Q8TBZ6) (Q8TBZ6 whole entry): as the sequence (Q8TBZ6 whole entry D210N) above, with N210D counted along it

C[S+](CC[C@H](N)C(=O)O)C[C@H]1O[C@@H](n2cnc3c(N)ncnc32)[C@H](O)[C@@H]1O (some centres unmarked) [S-adenosyl methionine]
Kd [1]: 17.7 ± 4 µM | Kd [2]: 60.6 ± 10.3 µM
